Data reported in US11731986B2 (Sanford Burnham Prebys Medical Discovery Institute, priority 2017, dated 2023).

Target: T1, human LMPTP-A (Homo sapiens, UniProt P24666)
T1 sequence (P24666 1-158): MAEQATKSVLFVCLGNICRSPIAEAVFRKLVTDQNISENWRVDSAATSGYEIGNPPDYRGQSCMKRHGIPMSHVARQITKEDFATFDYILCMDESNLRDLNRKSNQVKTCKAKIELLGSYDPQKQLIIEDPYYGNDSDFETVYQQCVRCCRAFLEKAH
Assay: Enzyme Assay of Inhibition of LMPTP-A (phosphatase assay, OMFP or pNPP substrate)
Type: biochemical
Settings: Bis-Tris pH 6.0, 37° C.
Protocol: Phosphatase assays were performed in buffer containing 50 mM Bis-Tris, pH 6.0, 1 mM DTT and 0.01% Triton X-100 at 37° C. For assays conducted with 3-O-methylfluorescein phosphate (OMFP) as substrate, fluorescence was monitored continuously at λex=485 and λem=525 nm. For assays conducted with para-nitrophenylphosphate (pNPP) as substrate, the reaction was stopped by addition of 2× reaction volume of 1 M NaOH, and absorbance was measured at 405 nm. IC50 values of compounds of Formula (I), (II), (III), or (IV) were determined from plots of inhibitor concentration versus percentage of enzyme activity. For inhibitor selectivity assays, each PTP was incubated with either 0.4 mM OMFP or 5 mM pNPP in the presence of 40 μM compound or DMSO. […] For the inhibitor reversibility assay, 50 nM human LMPTP-A was pre-incubated with 10 μM of compound of Formula (I), (II), (III), or (IV) or DMSO for 5 min. The enzyme was diluted 100× in phosphatase assay buffer containing 0.4 mM OMFP and fluorescence was measured at the indicated time points.

| SMILES | IC50 [nM] |
| --- | --- |
| CN1CCC(N/C(=N\O)c2ccc(-c3cc(NCCCN4CCCCC4)c4cncc(Cl)c4n3)cc2)CC1 [(Z)-4-(8-chloro-4-((3-(piperidin-1-yl)propyl)amino)-1,6-naphthyridin-2-yl)-N′-hydroxy-N-(1-methylpiperidin-4-yl)benzimidamide] | ≥ 20000 |
| O=C(c1nc2ccc(-c3cc(NCCCN4CCCCC4)c4cnccc4n3)cc2s1)N1CCOCC1 [Morpholino(6-(4-(3-(piperidin-1-yl)propylamino)-1,6-naphthyridin-2-yl)benzo[d]thiazol-2-yl)methanone] | 1000 to 20000 |
| CCN(CC)C(=O)c1ccc(-c2cc(NCCCN3CCCCC3)c3cnccc3n2)c(C(N)=O)c1 [N1,N1-diethyl-4-(4-((3-(piperidin-1-yl)propyl)amino)-1,6-naphthyridin-2-yl)isophthalamide] | 1000 to 20000 |
| CCN(CC)C(=O)CCc1ccc(-c2cc(NC3CCN(C)CC3)c3cnccc3n2)cc1 [N,N-Diethyl-3-(4-(4-(1-methylpiperidin-4-ylamino)-1,6-naphthyridin-2-yl)phenyl)propanamide] | ≤ 1000 |
| CCN(CC)C(=O)c1ccc(-c2cc(NC3CCN(C)C3)c3cnccc3n2)cc1 (centres unmarked) [N,N-Diethyl-4-(4-(1-methylpyrrolidin-3-ylamino)-1,6-naphthyridin-2-yl)benzamide] | 1000 to 20000 |
| CCN(CC)C(=O)c1ccc(-c2cc(Nc3ccc(NCCOC)cc3)c3cnccc3n2)cc1 [N,N-Diethyl-4-(4-(4-(2-methoxyethylamino)phenylamino)-1,6-naphthyridin-2-yl)benzamide] | 1000 to 20000 |

Other lines, results leading:

| IC50 [nM] | SMILES |
| --- | --- |
| ≤ 1000 | CN1CCC(CCNC(=O)/C=C/c2ccc(-c3cc(NCCCN4CCCCC4)c4cnccc4n3)cc2)CC1 [(E)-N-(2-(1-Methylpiperidin-4-yl)ethyl)-3-(4-(4-(3-(piperidin-1-yl)propylamino)-1,6-naphthyridin-2-yl)phenyl)acrylamide] |
| 1000 to 20000 | CN1CCC(CCNC(=O)/C=C/c2ccc(-c3cc(NCCCN4CCCCC4)c4cnccc4n3)o2)CC1 [(E)-N-(2-(1-Methylpiperidin-4-yl)ethyl)-3-(5-(4-((3-(piperidin-1-yl)propyl)amino)-1,6-naphthyridin-2-yl)furan-2-yl)acrylamide] |
| ≤ 1000 | CN1CCCN(CCNC(=O)/C=C/c2ccc(-c3cc(NCCCN4CCCCC4)c4cnccc4n3)cc2)CC1 [(E)-N-(2-(4-Methyl-1,4-diazepan-1-yl)ethyl)-3-(4-(4-(3-(piperidin-1-yl)propylamino)-1,6-naphthyridin-2-yl)phenyl)acrylamide] |
| ≤ 1000 | CN(C)CCNC(=O)/C=C/c1ccc(-c2cc(NCCCN3CCCCC3)c3cnccc3n2)cc1 [(E)-N-(2-(Dimethylamino)ethyl)-3-(4-(4-(3-(piperidin-1-yl)propylamino)-1,6-naphthyridin-2-yl)phenyl)acrylamide] |
| ≤ 1000 | O=C(/C=C/c1ccc(-c2cc(NCCCN3CCCCC3)c3cnccc3n2)cc1)NCCCN1CCCCC1 [(E)-N-(3-(Piperidin-1-yl)propyl)-3-(4-(4-(3-(piperidin-1-yl)propylamino)-1,6-naphthyridin-2-yl)phenyl)acrylamide] |
| 1000 to 20000 | CCN1CCC(CNC(=O)/C=C/c2ccc(-c3cc(NCCCN4CCCCC4)c4cnccc4n3)cc2)CC1 [(E)-N-((1-Ethylpiperidin-4-yl)methyl)-3-(4-(4-(3-(piperidin-1-yl)propylamino)-1,6-naphthyridin-2-yl)phenyl)acrylamide] |
| ≤ 1000 | CN1CCC(CNC(=O)/C=C/c2ccc(-c3cc(NCCCN4CCCCC4)c4cnccc4n3)cc2)CC1 [(E)-N-((1-Methylpiperidin-4-yl)methyl)-3-(4-(4-(3-(piperidin-1-yl)propylamino)-1,6-naphthyridin-2-yl)phenyl)acrylamide] |
| ≤ 1000 | CO/N=C(\NC1CCN(C)CC1)c1ccc(-c2cc(NCCCN3CCCCC3)c3cnccc3n2)cc1 [(Z)-N′-methoxy-N-(1-methylpiperidin-4-yl)-4-(4-(3-(piperidin-1-yl)propylamino)-1,6-naphthyridin-2-yl)benzimidamide] |
